What was measured:
INS-1 cells [1] = experiment: Mitochondrial membrane potential by TMRM staining and FACS in INS-1 cells; assay type: cell-based; settings: 10 μM, 2 hours, TMRM staining, vs DMSO control
Protocol: (§1) Initially, the INS-1 cells, which are insulin-secreting cells, were cultured in a cell incubator (37° C., 5% CO2, RPMI medium, 10% FBS), were treated with 10 μM of gypenoside 75, ginsenoside F1, ginsenoside Rg3, ginsenoside Rb2, or ginsenoside Rb3 for 2 hours, and the intracellular ATP amount and mitochondrial membrane potential were measured. For the control group, cells treated with DMSO were used.
In the final stage, the mitochondrial membrane potential was measured by tetramethylrhodamine methyl ester (TMRM) staining. As the level of the TMRM staining increases proportionately to the mitochondrial membrane potential, the intracellular mitochondrial membrane potential can be measured by measuring the level of the TMRM staining.
Specifically, the INS-1 cells treated with each of the above materials were stained with TMRM, and applied to fluorescence-activated cell sorting (FACS). Then, the level of the staining was quantified, analyzed, and compared (FIG. 2).

INS-1 cells [2] = experiment: Intracellular ATP amount by luciferase assay in INS-1 cells; assay type: cell-based; settings: 10 μM, 2 hours, vs DMSO control
Protocol: as §1
Next, the amount of ATP was measured using luciferase. As the fluorescence by activation of luciferase depends on the amount of ATP, the intracellular ATP amount can be measured by measuring the level of the fluorescence emission.
Specifically, the INS-1 cells treated with each of the above materials were lysed through freezing-thawing and ultrasonication treatments to obtain a cell lysate. Luciferase and luciferin were added to the obtained cell lysate above to induce fluorescence, and the levels of the fluorescence were quantified and compared (FIG. 1).

Compound: CC(C)=CCC[C@](C)(O[C@@H]1O[C@H](CO[C@@H]2O[C@H](CO)[C@@H](O)[C@H](O)[C@H]2O)[C@@H](O)[C@H](O)[C@H]1O)[C@H]1CC[C@]2(C)[C@@H]1[C@H](O)C[C@@H]1[C@@]3(C)CC[C@H](O)C(C)(C)[C@@H]3CC[C@]12C [gypenoside 75]
- increase of intracellular mitochondrial membrane potential compared with the control group (INS-1 cells [1]): 40%
- increase of intracellular ATP amount compared with the control group (INS-1 cells [2]): 50%

From US10330672B2, “Method for screening activator of mitochondrial activity” (INTELLIGENT SYNTHETIC BIOLOGY CENTER, priority 2015, dated 2019)
